Source: patent EP3057951B1, “METHYLENE LINKED QUINOLINYL MODULATORS OF ROR-GAMMA-T” (Janssen Pharmaceutica NV, priority 2013, dated 2015)

Legend:
[1] = target: T1, wild type human RORγt ligand binding domain (RORyt LBD) (Homo sapiens, UniProt P51449); assay: RORγt ThermoFluor assay (thermal shift, binding affinity KD)
T1 construct: His-tag (N); TurboTEV protease cleavage site (ENLYFQG) (N); made in house; host or cells: E. coli (pHIS1, modified pET vector)
T1 sequence (P51449 258-518): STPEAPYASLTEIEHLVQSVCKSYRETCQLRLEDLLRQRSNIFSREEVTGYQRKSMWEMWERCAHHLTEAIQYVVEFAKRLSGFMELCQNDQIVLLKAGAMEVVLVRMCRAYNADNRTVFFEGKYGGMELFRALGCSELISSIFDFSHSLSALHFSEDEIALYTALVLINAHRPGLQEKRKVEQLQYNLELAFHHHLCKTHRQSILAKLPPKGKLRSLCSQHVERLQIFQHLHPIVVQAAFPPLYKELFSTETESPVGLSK

[2] = target: T2, wild type human RORγt LBD (Homo sapiens, UniProt P51449); assay: RORγt (LBD) Reporter Assay (GAL4-luciferase, HEK293T cells); type: cell-based; details: HEK293T cells; for RORγt (LBD) Reporter Assay, % inhibition @ 6 µM: 6 µM compound concentration; for inhibition at 6 µM: HEK-293T, read-out: RORγt (LBD) Reporter Assay, % inhibition @ 6 µM, 6 µM compound concentration
T2 construct: expressed in transfected cells; host or cells: HEK293T
T2 sequence (P51449 258-518): T1 sequence (P51449 258-518)

| Structure (SMILES) | Kd [1] [nM] | RORγt (LBD) Reporter Assay, % inhibition @ 6 µM [2] [%] | IC50 [2] [nM] | inhibition at 6 µM [2] [%] |
| --- | --- | --- | --- | --- |
| Cc1ccc(C(O)(c2ccc3nc(N4CCC4)c(Cc4ccc(-n5cccn5)cc4)c(Cl)c3c2)c2cnnn2C)c(C)n1 (single isomer, unassigned) [Example 141c, {2-Azetidin-1-yl-4-chloro-3-[4-(1H-pyrazol-1-yl)benzyl]quinolin-6-yl}(2,6-dimethylpyridin-3-yl)(1-methyl-1H-1,2,3-triazol-5-yl)methanol] | 7100 | 5 | > 6000 |  |
| Cc1ccc(C(O)(c2ccc3nc(NC4CC4)c(Cc4ccc(C(F)(F)F)cc4)c(Cl)c3c2)c2cnnn2C)c(C)n1 (single isomer, unassigned) [Example 143b, {4-Chloro-2-(cyclopropylamino)-3-[4-(trifluoromethyl)benzyl]quinolin-6-yl}(2,6-dimethylpyridin-3-yl)(1-methyl-1H-1,2,3-triazol-5-yl)methanol] | 1700 |  | 1600 | 93 |
| Cc1ccc(C(O)(c2ccc3nc(NC4CC4)c(Cc4ccc(C(F)(F)F)cc4)c(Cl)c3c2)c2cnnn2C)c(C)n1 (single isomer, unassigned) [Example 143c, {4-Chloro-2-(cyclopropylamino)-3-[4-(trifluoromethyl)benzyl]quinolin-6-yl}(2,6-dimethylpyridin-3-yl)(1-methyl-1H-1,2,3-triazol-5-yl)methanol] | 2.2 | 102 | ~10 |  |
| Cc1ccc(C(O)(c2ccc3nc(Cl)c(Cc4ccc(C(F)(F)F)cc4)c(NC4CC4)c3c2)c2cnnn2C)c(C)n1 (single isomer, unassigned) [Example 144b, {2-Chloro-4-(cyclopropylamino)-3-[4-(trifluoromethyl)benzyl]quinolin-6-yl}(2,6-dimethylpyridin-3-yl)(1-methyl-1H-1,2,3-triazol-5-yl)methanol] | 2300 | 69 | ~3700 |  |
| Cc1ccc(C(O)(c2ccc3nc(Cl)c(Cc4ccc(C(F)(F)F)cc4)c(NC4CC4)c3c2)c2cnnn2C)c(C)n1 (single isomer, unassigned) [Example 144c, {2-Chloro-4-(cyclopropylamino)-3-[4-(trifluoromethyl)benzyl]quinolin-6-yl}(2,6-dimethylpyridin-3-yl)(1-methyl-1H-1,2,3-triazol-5-yl)methanol] | 2.5 | 99 | 34 |  |
| Cn1cncc1C(O)(c1ccc(C(F)(F)F)nc1)c1ccc2nc(N3CCCC3)c(Cc3ccc(-n4cccn4)cc3)c(Cl)c2c1 (single isomer, unassigned) [Example 145b, {4-Chloro-3-[4-(1H-pyrazol-1-yl)benzyl]-2-pyrrolidin-1-ylquinolin-6-yl}(1-methyl-1H-imidazol-5-yl)[6-(trifluoromethyl)pyridin-3-yl]methanol] | 80 |  | 230 | 102 |
| Cn1cncc1C(O)(c1ccc(C(F)(F)F)nc1)c1ccc2nc(N3CCCC3)c(Cc3ccc(-n4cccn4)cc3)c(Cl)c2c1 (single isomer, unassigned) [Example 145c, {4-Chloro-3-[4-(1H-pyrazol-1-yl)benzyl]-2-pyrrolidin-1-ylquinolin-6-yl}(1-methyl-1H-imidazol-5-yl)[6-(trifluoromethyl)pyridin-3-yl]methanol] | 810 | 95 | 780 |  |
| Cn1cncc1C(O)(c1ccc(C(F)(F)F)nc1)c1ccc2nc(N3CCOCC3)c(Cc3ccc(-n4cccn4)cc3)c(Cl)c2c1 (single isomer, unassigned) [Example 146b, {4-Chloro-2-morpholin-4-yl-3-[4-(1H-pyrazol-1-yl)benzyl]quinolin-6-yl}(1-methyl-1H-imidazol-5-yl)[6-(trifluoromethyl)pyridin-3-yl]methanol] | 84 |  | 210 | 103 |
| Cn1cncc1C(O)(c1ccc(C(F)(F)F)nc1)c1ccc2nc(N3CCOCC3)c(Cc3ccc(-n4cccn4)cc3)c(Cl)c2c1 (single isomer, unassigned) [Example 146c, {4-Chloro-2-morpholin-4-yl-3-[4-(1H-pyrazol-1-yl)benzyl]quinolin-6-yl}(1-methyl-1H-imidazol-5-yl)[6-(trifluoromethyl)pyridin-3-yl]methanol] | 600 | 92 | ~2000 |  |
| Cn1cncc1C(O)(c1ccc(C(F)(F)F)nc1)c1ccc2nc(N3CC(F)C3)c(Cc3ccc(-n4cccn4)cc3)c(Cl)c2c1 (single isomer, unassigned) [Example 147b, {4-Chloro-2-(3-fluoroazetidin-1-yl)-3-[4-(1H-pyrazol-1-yl)benzyl]quinolin-6-yl}(1-methyl-1H-imidazol-5-yl)[6-(trifluoromethyl)pyridin-3-yl]methanol] | 60 |  | 210 | 99 |
| Cn1cncc1C(O)(c1ccc(C(F)(F)F)nc1)c1ccc2nc(N3CC(F)C3)c(Cc3ccc(-n4cccn4)cc3)c(Cl)c2c1 (single isomer, unassigned) [Example 147c, {4-Chloro-2-(3-fluoroazetidin-1-yl)-3-[4-(1H-pyrazol-1-yl)benzyl]quinolin-6-yl}(1-methyl-1H-imidazol-5-yl)[6-(trifluoromethyl)pyridin-3-yl]methanol] | 5.2 | 96 | 52 |  |
| Cc1ccc(C(O)(c2ccc3nc(N4CC(F)(F)C4)c(Cc4ccc(C(F)(F)F)cc4)c(Cl)c3c2)c2cnnn2C)c(C)n1 (single isomer, unassigned) [Example 148b, {4-Chloro-2-(3,3-difluoroazetidin-1-yl)-3-[4-(trifluoromethyl)benzyl]quinolin-6-yl}(2,6-dimethylpyridin-3-yl)(1-methyl-1H-1,2,3-triazol-5-yl)methanol] | 56 |  | 460 | 97 |
| Cc1ccc(C(O)(c2ccc3nc(N4CC(F)(F)C4)c(Cc4ccc(C(F)(F)F)cc4)c(Cl)c3c2)c2cnnn2C)c(C)n1 (single isomer, unassigned) [Example 148c, {4-Chloro-2-(3,3-difluoroazetidin-1-yl)-3-[4-(trifluoromethyl)benzyl]quinolin-6-yl}(2,6-dimethylpyridin-3-yl)(1-methyl-1H-1,2,3-triazol-5-yl)methanol] | 0.39 | 98 | ~6 |  |
| CCN(CC)c1nc2ccc(C(O)(c3ccc(Cl)cc3)c3cncn3C)cc2c(C#N)c1Cc1ccc(-n2cccn2)cc1 (single isomer, unassigned) [Example 154c, 3-(4-(1H-pyrazol-1-yl)benzyl)-6-((4-chlorophenyl)(hydroxy)(1-methyl-1H-imidazol-5-yl)methyl)-2-(diethylamino)quinoline4-carbonitrile] | > 56000 |  | 1000 |  |
| COc1nc2ccc(C(O)(c3ccc(F)cc3)C3CCN(C(C)=O)CC3)cc2c(Cl)c1Cc1ccc(-n2cccn2)cc1 (single isomer, unassigned) [Example 157b, 1-(4-((3-(4-(1H-Pyrazol-1-yl)benzyl)4-chloro-2-methoxyquinolin-6-yl)(4-fluorophenyl)(hydroxy)methyl)piperidin-1-yl)ethanone] | 1.7 |  | 34 | 102 |
